According to publication PMC4684500, “Diversity, Antimicrobial Action and Structure-Activity Relationship of Buffalo Cathelicidins” (PLoS ONE, 2015):
In brackets after ≈: the same amount, converted by molar mass. Read-outs that look alike come from different tables or passages of the source. Where no end group is shown, it is not given here.

Assays:
[1] = tested on: Acinetobacter johnsonii NCDC-0072; format: cell-based
Procedure: (§1) The buCATHL4 peptides were synthesized by G L Biochem (Shanghai, China). Purity and molecular mass of the peptides were provided by the vendors using HPLC and mass spectrometry, respectively. The purity of all peptides were >98%. Minimum inhibitory concentrations (MIC) of buCATHL4s against the pathogenic microorganisms were tested by broth micro-dilution technique. Briefly, bacteria were grown in Mueller Hinton broth (Sigma-Aldrich, MO, USA) at 37°C. The OD of early-log phase cultures were adjusted to 0.08–0.1 and further diluted (1:200) to keep inoculums concentration nearly 10^6 colony forming units (CFU)/ml. Diluted peptides (10 μl) were mixed with equi-volume solution A (0.02% acetic acid containing 0.4% BSA) and were serially diluted in the solution B (0.01% acetic acid containing 0.2% BSA). Bacterial inoculums (90 μl) were mixed with serially diluted peptides and incubated at 37°C for 24 h without shaking. […] All peptides were tested in triplicate. For time kill kinetics experiments, peptides (1×, 2× and 4× MIC) were added to bacterial suspension of Staphylococcus aureus, Salmonella enterica and Pseudomonas aeruginosa, as described in the MIC determination method. Aliquots of representative wells were diluted and plated on Muller Hinton agar plates at 0, 1, 4, 12 and 24 h intervals. Water with 0.01% acetic acid and ampicillin (100 mg/ml) were taken as […] controls, respectively. The results were represented as log CFU/ml.

[2] = tested on: Pseudomonas aeruginosa ATCC-27853; format: cell-based
Procedure: as §1

[3] = tested on: Pseudomonas aeruginosa NCDC-0105; format: cell-based
Procedure: as §1

[4] = tested on: Salmonella typhimurium ATCC-14028; format: cell-based
Procedure: as §1

[5] = tested on: Bacillus cereus NCDC-0240; format: cell-based
Procedure: as §1

[6] = tested on: Listeria monocytogenes ATCC-19111; format: cell-based
Procedure: as §1

[7] = tested on: Escherichia coli MTCC-0723; format: cell-based
Procedure: as §1

[8] = tested on: Stahylococcus aureus ATCC-29213; format: cell-based, Staphylococcus aureus
Procedure: as §1

[9] = tested on: Stahylococcus aureus NCDC-0111; format: cell-based, Staphylococcus aureus
Procedure: as §1

S. typhimurium [10] = test: LIVE/DEAD BacLight membrane permeability assay; format: cell-based, Salmonella typhimurium; details: peptide 200μM, SYTO9/PI; for Membrane permeability of latent (stationary phase) S. typhimurium: stationary phase culture, proportion of cells affected comparatively less; for Clumping (agglutination) of S. typhimurium after peptide addition: log phase culture
Procedure: (§2) The damage to bacterial membrane following addition of peptide was assessed by BacLight kit (Life Technologies, CA, USA). Aliquots of S. aureus, S. enterica and P. aeruginosa cultures from exponential (shaking incubation for 2, 3, and 4 h, respectively) and stationary phases (overnight incubation) were harvested by centrifugation (5000 g for 10 min) and diluted in PBS. Peptides (200μM) were added to bacterial suspension and 50 μl aliquots were removed immediately or after 1 h incubation. Equi-volume mixtures of SYTO9/PI (3 μl/ml bacterial suspension) were added to these aliquots and fluorescent micrographs of stained bacteria were taken at 1000×magnification in a microscope (Olympus BX51 fitted with DP71 camera) with a fluorescence illuminator system.

S. aureus biofilm = test: Biofilm assay (crystal violet); format: cell-based, Staphylococcus aureus; details: peptide at 1× and 2× MIC, 24 h 37°C, crystal violet A570
Procedure: (§3) The efficacy of peptides against biofilms of S. aureus and P. aeruginosa was determined using previously described method. Overnight grown bacterial cultures were diluted (1:100) and 200 μl suspensions were mixed with each peptide (1× and 2× MIC) in a 96 well plate and incubated for 24 h at 37°C. Biofilms were fixed with paraformadehyde solution, cultures were decanted and 0.1% crystal violet solution was added to stain the film. The plate was rinsed thrice with water and air-dried. The stain was dissolved by 100 μl of acetic acid (30%) and absorbance was measured at 570 nm. The experiment was performed in triplicate, 30% acetic acid was taken as a blank.

S. typhimurium [11] = test: Scanning and transmission electron microscopy; format: cell-based, Salmonella typhimurium; details: for Morphological change of S. typhimurium cells (SEM/TEM): increasing concentrations (>2× MIC)
Procedure: (§4) Early log phase cultures of S. aureus and S. enterica were subjected to different concentration of peptides and incubated at 37°C. The bacterial pellets after centrifugation (5000 g for 10 min) were washed with 0.1M cacodylate buffer (pH 7.2) and were fixed in 2.5% gluteraldehyde at 4°C for 2 h. For scanning electron microscopy, bacteria were dehydrated using gradient series of ethanol wash (30, 50, 70, 90 and absolute). The samples were air-dried overnight, gold coated (Eiko IB-3 ion coater), and viewed in a Zeiss EVO 18 Special Edition SEM. For transmission electron microscopy, fixed samples were adhered to hexagonal PELCO® Grids (Ted Pella, Inc. USA), washed once with Mili-Q water and stained with uranyl acetate (2%) buffer. Samples were viewed in a JEM 1011 (Jeol, Japan) microscope.

[12] = tested on: S. aureus, S. typhimurium and P. aeruginosa; test: Time kill kinetics, three pathogens; format: cell-based; details: peptide at 4× MIC
Procedure: as §1

P. aeruginosa biofilm = test: Biofilm assay (crystal violet); format: cell-based, Pseudomonas aeruginosa; details: 24 h 37°C, crystal violet A570
Procedure: as §3

S. aureus [13] = test: Time kill kinetics; format: cell-based, Staphylococcus aureus; details: for Growth inhibition of S. aureus in time kill kinetics: peptide at 2× MIC, plating at 0, 1, 4, 12, 24 h; for Time to complete elimination of S. aureus: peptide at 4× MIC, time kill kinetics
Procedure: as §1

S. aureus [14] = test: Scanning and transmission electron microscopy; format: cell-based, Staphylococcus aureus
Procedure: as §4

[15] = tested on: bacterial biofilm (S. aureus and P. aeruginosa); test: Biofilm assay, overall statement; format: cell-based; details: summary in discussion
Procedure: as §3

S. aureus [16] = test: LIVE/DEAD BacLight membrane permeability assay; format: cell-based, Staphylococcus aureus; details: peptide 200μM, log phase culture, SYTO9/PI
Procedure: as §2

[17] = increasing concentrations (>2× MIC)

Compound | MIC ([1]; 24 h) [µM] | MIC ([2]; ATCC-27853, 24 h) [µM] | MIC ([3]; NCDC-0105, 24 h) [µM] | MIC ([4]; ATCC-14028, 24 h) [µM] | MIC ([5]; NCDC-0240, 24 h) [µM] | MIC ([6]; ATCC-19111, 24 h) [µM] | MIC ([7]; MTCC-0723, 24 h) [µM] | MIC ([8]; ATCC-29213, 24 h) [µM] | MIC ([9]; 24 h) [µM] | Membrane permeability of latent (stationary phase) S. typhimurium (S. typhimurium [10]) | Reduction in biofilm growth of S. aureus (S. aureus biofilm) | Killing rate compared with indolicidin and ampicillin [12] | Reduction in biofilm growth of P. aeruginosa (P. aeruginosa biofilm; peptide at 1× and 2× MIC) | Growth inhibition of S. aureus in time kill kinetics (S. aureus [13]) | Clumping (agglutination) of S. typhimurium after peptide addition (S. typhimurium [10]) | Morphological change of S. aureus cells (SEM/TEM) (S. aureus [14]; [17]) | Morphological change of S. aureus cells (SEM/TEM) (S. aureus [14]; lower concentrations (≤2× MIC)) | Morphological change of S. typhimurium cells (SEM/TEM) (S. typhimurium [11]) | Effect against growth of bacterial biofilms (overall) [15] | Clumping (agglutination) of S. aureus after peptide addition (S. aureus [16]) | other results
GLPWILLRWLFFRG [buCATHL4A] | 200 | >200 | >200 | 100 | 100 | 6 | 200 | 3 | 25 |  |  |  |  |  |  |  |  |  |  |  | 
RIRFPWPWRWPWWPRFRG [buCATHL4D] | 50 | 25 | 50 | 50 | 1.5 | 6 | 6 | 6 | 12.5 | affected membrane permeability | substantial | comparatively better killing rate | substantial | complete growth inhibition |  |  |  |  |  |  | Formation of negative curvature on membrane (SEM/TEM) (S. typhimurium [11]; more evident with S. typhimurium): Formation of negative curvature
AIPWSIWWRLLFKG [buCATHL4F] | 200 | 100 | 50 | 0.2 | 100 | 3 | >200 | 6 | 6 | affected membrane permeability |  |  |  | complete growth inhibition | immediate clumping | budding | swelling and blebing | budding | no marked effect | immediate clumping | Reduction in biofilm growth of P. aeruginosa (P. aeruginosa biofilm; peptide at 2× MIC): considerably; Time to complete elimination of S. aureus (S. aureus [13]): 4 h
CC[C@H](C)[C@H](N)C(=O)N[C@@H](CC(C)C)C(=O)N1CCC[C@H]1C(=O)N[C@@H](Cc1c[nH]c2ccccc12)C(=O)N[C@@H](CCCCN)C(=O)N[C@@H](Cc1c[nH]c2ccccc12)C(=O)N1CCC[C@H]1C(=O)N[C@@H](Cc1c[nH]c2ccccc12)C(=O)N[C@@H](Cc1c[nH]c2ccccc12)C(=O)N1CCC[C@H]1C(=O)N[C@@H](Cc1c[nH]c2ccccc12)C(=O)N[C@@H](CCCNC(=N)N)C(=O)N[C@@H](CCCNC(=N)N)C(N)=O [Indolicidin, indolicidin, reference compound] |  |  |  |  |  |  |  |  |  |  | effective |  | effective |  |  |  |  |  |  |  | MIC ([1]; Acinetobacter johnsonii NCDC-0072, broth microdilution, Mueller Hinton broth, ~10^6 CFU/ml, 37°C 24 h, no visible turbidity, triplicate): 6 µM (≈ 11.4 µg/mL); MIC ([2]; Pseudomonas aeruginosa ATCC-27853, broth microdilution, Mueller Hinton broth, ~10^6 CFU/ml, 37°C 24 h, no visible turbidity, triplicate): 25 µM (≈ 47.7 µg/mL); MIC ([3]; Pseudomonas aeruginosa NCDC-0105, broth microdilution, Mueller Hinton broth, ~10^6 CFU/ml, 37°C 24 h, no visible turbidity, triplicate): 12.5 µM (≈ 23.8 µg/mL); MIC ([4]; Salmonella typhimurium ATCC-14028, broth microdilution, Mueller Hinton broth, ~10^6 CFU/ml, 37°C 24 h, no visible turbidity, triplicate): 12.5 µM (≈ 23.8 µg/mL); MIC ([5]; Bacillus cereus NCDC-0240, broth microdilution, Mueller Hinton broth, ~10^6 CFU/ml, 37°C 24 h, no visible turbidity, triplicate): 0.8 µM (≈ 1.53 µg/mL); MIC ([6]; Listeria monocytogenes ATCC-19111, broth microdilution, Mueller Hinton broth, ~10^6 CFU/ml, 37°C 24 h, no visible turbidity, triplicate): 6 µM (≈ 11.4 µg/mL); MIC ([7]; Escherichia coli MTCC-0723, broth microdilution, Mueller Hinton broth, ~10^6 CFU/ml, 37°C 24 h, no visible turbidity, triplicate): 0.8 µM (≈ 1.53 µg/mL); MIC ([8]; Stahylococcus aureus ATCC-29213, broth microdilution, Mueller Hinton broth, ~10^6 CFU/ml, 37°C 24 h, no visible turbidity, triplicate): 3 µM (≈ 5.72 µg/mL); MIC ([9]; Stahylococcus aureus NCDC-0111, broth microdilution, Mueller Hinton broth, ~10^6 CFU/ml, 37°C 24 h, no visible turbidity, triplicate): 1.5 µM (≈ 2.86 µg/mL)
AIPWSIWWHLLFKG [buCATHL4G] | 25 | 200 | 200 | 3 | 50 | 1.5 | 50 | 0.8 | 12.5 |  |  | comparatively better killing rate |  |  | immediate clumping | budding | swelling and blebing | budding | no marked effect | immediate clumping | Time to complete elimination of S. aureus (S. aureus [13]): 4 h
